Test results: patent US12220394B2, “Pharmaceutical composition for prevention or treatment of kidney damage” (National University Corporation Kanazawa University, priority 2018, dated 2025)

Legend:
[1] = system: kidney tissue after ischemia reperfusion; experiment: PAS staining and ATN score of kidney tissue sections after renal ischemia reperfusion; assay type: in vivo, C57BL/6J mice; conditions: 10 days after ischemia reperfusion
Protocol: The animals were reared with free access to water and feed under conditions with an SPF environment and 12-hour light-dark cycling. C57BL/6J mice were purchased from Clea Japan, Inc. (Osaka). Male 12- to 16-week-old mice were treated by renal ischemia reperfusion (hereunder also referred to as “I/R”). The renal pedicles were clamped with a non-traumatic clip (Natsume Seisakusho, Tokyo) under pentobarbital anesthesia to elicit ischemia. The clips were released after 40 minutes. The body temperature was kept at 37° C. during treatment. […] On day 10 after IR treatment, the kidney tissues were sampled. After ischemia reperfusion, the kidneys sampled on day 10 were fixed with 10% neutral buffered formalin and embedded in paraffin, and then stained with periodic acid-Schiff (PAS staining). The stained slices were photographed with a bright-field microscope (FIG. 1). Debris stained with PAS (skin boundary) or brush border (skin boundary and cortical region) were quantitatively evaluated in at least 10 different locations. The debris, renal tubular dilation, brush border damage, and renal tubule necrosis were evaluated by ATN score (0: none, 1: mild, 2: moderate, 3: severe). Sample evaluation was carried out blind.

[2] = system: macrophages in kidney tissue; experiment: F4/80 immunostaining of kidney tissue after renal ischemia reperfusion; assay type: in vivo, C57BL/6J mice
Protocol: The animals were reared with free access to water and feed under conditions with an SPF environment and 12-hour light-dark cycling. C57BL/6J mice were purchased from Clea Japan, Inc. (Osaka). Male 12- to 16-week-old mice were treated by renal ischemia reperfusion (hereunder also referred to as “I/R”). The renal pedicles were clamped with a non-traumatic clip (Natsume Seisakusho, Tokyo) under pentobarbital anesthesia to elicit ischemia. The clips were released after 40 minutes. The body temperature was kept at 37° C. during treatment. The mice were reared with free access to water (control) or 20 mM D-alanine-containing water, prior to 14 days after IR treatment. On day 10 after IR treatment, the kidney tissues were sampled. After ischemia reperfusion, the kidney tissues harvested on day 10 were fixed with 10% neutral buffered formalin and supplied for immunostaining using F4/80 antibody (Invitrogen, catalog #: MF48,000). F4/80 is a protein expressed specifically by macrophages, and it allows visualization of macrophages in kidney tissue. In the water-administered control group, cells stained with F4/80 were found accumulated in kidney tissue ([…]), but in the D-alanine-administered groups (20 mM and 80 mM) such cellular accumulation was minimal (FIG. 3(A)). The proportion of stained region in each group was measured (FIG. 3(B)).

[3] = system: fibrotic tissue in kidney; experiment: AZAN staining of kidney tissue after renal ischemia reperfusion; assay type: in vivo, C57BL/6J mice
Protocol: The animals were reared with free access to water and feed under conditions with an SPF environment and 12-hour light-dark cycling. C57BL/6J mice were purchased from Clea Japan, Inc. (Osaka). Male 12- to 16-week-old mice were treated by renal ischemia reperfusion (hereunder also referred to as “I/R”). The renal pedicles were clamped with a non-traumatic clip (Natsume Seisakusho, Tokyo) under pentobarbital anesthesia to elicit ischemia. The clips were released after 40 minutes. The body temperature was kept at 37° C. during treatment. The mice were reared with free access to water (control) or 20 mM D-alanine-containing water, prior to 14 days after IR treatment. On day 10 after IR treatment, the kidney tissues were sampled. After ischemia reperfusion, the kidney tissues sampled on day 10 were fixed with 10% neutral buffered formalin and provided for AZAN staining. In AZAN staining, fibrotic tissue is stained with aniline blue. […] The proportion of stained region in each group was measured (FIG. 4(B)).

[4] = cited from earlier work
[5] = D-alanine group compared with water group
[6] = 10 days after ischemia reperfusion, D-alanine group vs water group

## C[C@@H](N)C(=O)O [D-alanine]
[1]; D-alanine 20 mM and 80 mM in drinking water vs water group
  PAS staining intensity of kidney tissue section (accumulation of inflammatory cells such as neutrophils and eosinophils): decreased in a dose-dependent manner
[1]; [5]
  grade of brush border region in kidney tissue section (ATN score): improved in a dose-dependent manner
  grade of intraluminal debris in kidney tissue section (ATN score): improved in a dose-dependent manner
  grade of necrosis in kidney tissue section (ATN score): improved in a dose-dependent manner
[2]; [6]
  F4/80 staining intensity of kidney tissue section (accumulation of macrophages and monocytes): decreased in a dose-dependent manner
[2]; after ischemia reperfusion, D-alanine 20 mM and 80 mM vs water-administered control
  accumulation of cells stained with F4/80 in kidney tissue: minimal
[3]; [6]
  AZAN staining intensity of kidney tissue section (fibrosis): decreased in a dose-dependent manner
[3]; day 10 after ischemia reperfusion, D-alanine 20 mM and 80 mM vs water-administered control
  aniline blue-stained regions (fibrotic tissue) in kidney tissue: reduced in a dose-dependent manner
[4]; ingestion on the order of 10 g
  adverse events when used as a food: No adverse events have been reported
[4]; oral administration
  toxicity via oral administration: no reported toxicity
